The test system of one series is TNF-α. Briefly: Cytokine production by R848-activated PBMCs, LEGENDplex Human Inflammation panel 1: TNF-α. It counts as cell-based. To be noted: Homo sapiens, PBMC, PBMCs from 2 healthy donors, R848 overnight. The procedure:
(§1) 2) The PBMCs used herein were prepared as described in part A “immune cells preparation”, section 2) above. PBMCs were seeded at 4.10^6/mL. […] Cells were then stimulated with the TLR7/8 agonist resiquimod—R848 (Sigma-Aldrich, MO, USA) at 5 μg/mL.
(§2) Cytokine expression levels were assessed using LEGENDplex Human inflammation panel 1 Kit (BioLegend, California, USA), which is a bead-based multiplex assay, using fluorescence-encoded beads. […] First, supernatants of R848-stimulated PBMCs were harvested after 24 h of stimulation and frozen at −20° C. for storage. Supernatants were dispensed into a 96-well V-bottom plate. Protocol pursued as per manufacturer recommendations (Manual for BioLegend LEGENDplex, Multi-Analyte Flow Assay Kit, Human Inflammation Panel 1, version 750000393_R01).

The subject of the next series is IL-23. Briefly: Cytokine production by R848-activated PBMCs, LEGENDplex Human Inflammation panel 1: IL-23. The class given is cell-based. To be noted: Homo sapiens, PBMC, PBMCs from 2 healthy donors, R848 overnight. The protocol:
as §1, §2

Series [1] has as its system IFN production by activated PBMCs. Briefly: IFN production by R848-activated PBMCs from healthy donors, twINNE reporter cell line. The class given is cell-based, human. The note with it: Homo sapiens, PBMC, means of two results over 2 healthy donors, R848 5 μg/mL, IT1t: mean over all experiments, read-out: IC50 of anti-inflammatory activity (IFN production). Summed up:
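Human PBMCs (4.10^6/mL, RPMI/10% FBS, 37° C) stimulated with R848 at 5 μg/mL; supernatants collected after 24 h. Functional IFN measured on twINNE cells (ISRE-driven luciferase reporter) after 24 h culture by bioluminescence; IC50 from variable-slope dose-response fits.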

For the next series, the system named is IL-10. Description: Cytokine production by R848-activated PBMCs, LEGENDplex Human Inflammation panel 1: IL-10. It counts as cell-based. The note with it: Homo sapiens, PBMC, PBMCs from 2 healthy donors, R848 overnight. The procedure: as §1, §2
The next series concerns IL-1β. Briefly: Cytokine production by R848-activated PBMCs, LEGENDplex Human Inflammation panel 1: IL-1β. The note with it: Homo sapiens, PBMC, PBMCs from 2 healthy donors, R848 overnight, read-out: IC50 (μM) 1L-1β. It counts as cell-based. The procedure:
as §1, §2

Another series relates to IL-18. Description: Cytokine production by R848-activated PBMCs, LEGENDplex Human Inflammation panel 1: IL-18. The class given is cell-based. To be noted: Homo sapiens, PBMC, PBMCs from 2 healthy donors, R848 overnight. The procedure:
as §1, §2

The test system of a further series is IL-12p70. Briefly: Cytokine production by R848-activated PBMCs, LEGENDplex Human Inflammation panel 1: IL-12p70. It counts as cell-based. To be noted: Homo sapiens, PBMC, PBMCs from 2 healthy donors, R848 overnight. The procedure:
as §1, §2

The next series deals with IFN-γ. Briefly: Cytokine production by R848-activated PBMCs, LEGENDplex Human Inflammation panel 1: IFN-γ. It counts as cell-based. The note with it: Homo sapiens, PBMC, PBMCs from 2 healthy donors, R848 overnight. The procedure:
as §1, §2

In series [2] the test system is IL-1β, IFN-γ, TNF-α, IL-10, IL-12p70, IL-18 and IL-23. Briefly: Cytokine production by R848-activated PBMCs, LEGENDplex: statements on all inhibited cytokines together. It counts as cell-based. To be noted: Homo sapiens, PBMC, PBMCs from two healthy donors, read-out: IC50 on the expression of cytokines, on all such cytokines. The procedure: as §1, §2

We go through 9 compounds from patent US20220144853A1, “IMIDAZOLINE DERIVATIVES AS CXCR4 MODULATORS” (Université de Paris, priority 2019, published 2022).

Molecules are shown by their SMILES. Where a name gives a salt, the structure may show the parent alone.

The term melting point denotes the temperature of the solid-liquid transition. The IC50 is the midpoint of a concentration-inhibition curve.

The compound `C1=C(CSC2=NCCN2)N2C(=N[C@H]3CCCCC32)S1` (mixture of isomers) (as salt: hydrochloride) [Example 59, trans-3-(((4,5-dihydro-1H-imidazol-2-yl)thio)methyl)-4a,5,6,7,8,8a-hexahydrobenzo[4,5]imidazo[2,1-b]thiazole dihydrochloride] showed a melting point of 115 to 120 °C.

In the case of `CC(C)[C@@H]1N=C2SC=C(CSC3=NCC(C)(C)N3)N2[C@H]1C(C)C` (racemic) (as salt: hydrochloride) [Example 62, trans-3-(((5,5-dimethyl-4,5-dihydro-1H-imidazol-2-yl)thio)methyl)-5,6-diisopropyl-5,6-dihydroimidazo[2,1-b]thiazole dihydrochloride], the melting point is 237 to 241 °C.

For the compound `CN1CCN=C1SCC1=CSC2=NC3CCCCC3N12` (racemic) (as salt: hydrochloride) [Example 63, trans-3-(((1-methyl-4,5-dihydro-1H-imidazol-2-yl)thio)methyl)-4a,5,6,7,8,8a-hexahydrobenzo[4,5]imidazo[2,1-b]thiazole dihydrochloride], the melting point was in the range of 204 to 207 °C.

For `CC1(C)CN=C(SCC2=CSC3=N[C@H]4CCCC[C@@H]4N23)N1` (racemic) [Example 7, trans-3-(((4,4-dimethyl-4,5-dihydro-1H-imidazol-2-yl)thio)methyl)-4a,5,6,7,8,8a-hexahydrobenzo[4,5]imidazo[2,1-b]thiazole dihydrochloride], the half-inhibitory concentration (IC50) with TNF-α is 20 µM; in the series with IL-23, 2.9 µM; in series [1], at most 10 µM; with IL-10 it was 5.6 µM; in the series with IL-1β, 9.9 µM; in the series on IL-18 it was 4.2 µM. Further, the concentration for half-maximal inhibition (IC50) in the series with IL-12p70 is 6.7 µM; with IFN-γ, 9.8 µM; in series [2] it was at most 20 µM.

On to `CN1CCN=C1SCC1=CSC2=NC3CCCCC3N12` (racemic) [Example 63, trans-3-(((1-methyl-4,5-dihydro-1H-imidazol-2-yl)thio)methyl)-4a,5,6,7,8,8a-hexahydrobenzo[4,5]imidazo[2,1-b]thiazole dihydrochloride], for which the IC50 in the series on IL-23 is 0.69 µM; in series [1], at most 10 µM; in the series with IL-1β it was 2.8 µM; with IL-18 it was 1.3 µM; in the series on IL-12p70 it was 1.2 µM; with IFN-γ it was 2.7 µM.

For the compound `CC1(C)CN2C(CSC3=N[C@@H]4CCCC[C@H]4N3)=CSC2=N1` [Example 3, 3-((((3aR,7aR)-3a,4,5,6,7a-hexahydro-1H-benzo[d]imidazol-2-yl)thio)methyl)-6,6-dimethyl-5,6-dihydroimidazo[2,1-b]thiazole dihydrochloride], the half-maximal inhibitory concentration (IC50) in the series on TNF-α is 11 µM; in the series with IL-23 it was 1.7 µM; in series [1], at most 10 µM; in the series with IL-10 it was 11 µM; in the series on IL-1β, 12 µM; with IL-18, 6.9 µM. Moreover, the figures for the IC50 (in the series on IL-12p70; in the series with IFN-γ; in [2]) were 2.6 µM, 7.2 µM and at most 20 µM, respectively.

As for `CC1(C)CN2C(CSC3=NCC(Cc4ccccc4)N3)=CSC2=N1` (centres unmarked) [Example 17, 3-(((5-benzyl-4,5-dihydro-1H-imidazol-2-yl)thio)methyl)-6,6-dimethyl-5,6-dihydroimidazo[2,1-b]thiazole dihydrochloride], the IC50 was 4.6 µM in the series on TNF-α; 2.2 µM with IL-23; at most 10 µM in [1]; 2.7 µM in the series with IL-10; 3.6 µM with IL-1β; 0.54 µM in the series on IL-18. Further, the IC50 in the series with IL-12p70 is 0.34 µM; in the series on IFN-γ, 3.2 µM; in series [2], at most 20 µM.

On to `CC1(C)CN=C(SCC2=CSC3=NC(Cc4ccccc4)CN23)N1` (centres unmarked) [Example 18, 6-benzyl-3-(((5,5-dimethyl-4,5-dihydro-1H-imidazol-2-yl)thio)methyl)-5,6-dihydroimidazo[2,1-b]thiazole dihydrochloride], for which the IC50 in the series with TNF-α was 7.9 µM; in the series with IL-23 it was 2.9 µM; in series [1], 10 to 31 µM; with IL-10, 3.7 µM; with IL-1β, 5.6 µM; in the series on IL-18, 0.2 µM. Besides, the IC50 is 3.6 µM in the series on IL-12p70, 6.1 µM in the series on IFN-γ and at most 20 µM in series [2].

Regarding `CC1(C)CN2C(CCCSC3=NCC(C)(C)N3)=CSC2=N1.Cl.Cl` [Example 64, 3-(3-((5,5-dimethyl-4,5-dihydro-1H-imidazol-2-yl)thio)propyl)-6,6-dimethyl-5,6-dihydroimidazo[2,1-b]thiazole dihydrochloride], the melting point is 85 to 95 °C. For the same compound, the IC50 in [1] was at least 31 µM.
